Measured values from patent US20240270821A1, “GIP/GLP1/GCG TRI-RECEPTOR AGONISTS AND USES THEREOF” (priority 2023, published 2024).
Where two headings read alike, the source gives them in different places. Starred links: 1 amine or outer side, 2 acyl side, 3 side chain; linkers in the order of their positions; H or OH if unused. Non-standard residues stand in square brackets, D forms with d. Residues, ends and D or L forms follow the SMILES beside them. Groups on a side chain read outwards from the residue. No end group written: not given here. *: point of attachment. C18 diacid = O=C(O)CCCCCCCCCCCCCCCCC(=O)*; αMePhe(2-F) = C[C@](N)(Cc1ccccc1F)C(=O)O; γGlu = O=C(O)[C@H](CCC(=O)[*:2])N[*:1]; αMe4Pal = C[C@](N)(Cc1ccncc1)C(=O)O; αMeY = C[C@](N)(Cc1ccc(O)cc1)C(=O)O; 4Pal = N[C@@H](Cc1ccncc1)C(=O)O; αMeL = CC(C)C[C@](C)(N)C(=O)O; αMeS = C[C@](N)(CO)C(=O)O; Orn = NCCC[C@H](N)C(=O)O; AEEA = NCCOCCOCC(=O)O; Aib = CC(C)(N)C(=O)O

Experiments:
Format in all cases: cell-based
hGLP-1R [1] = target: T1, hGLP-1R (Homo sapiens, UniProt P43220); assay: Functional cAMP activation in the presence of 0.1% casein (no HSA);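 further: intracellular cAMP rise after 30 min at 37 °C read by HTRF, normalized between buffer only (0%) and maximal control ligand (100%), four-parameter variable-slope fit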
hGLP-1R [2] = target: T1, hGLP-1R; assay: Functional cAMP activity in the presence of 1% HSA
hGcgR = hGcgR (Homo sapiens, UniProt P47871); assay: Functional cAMP activation in the presence of 0.1% casein (no HSA);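 further: intracellular cAMP rise after 30 min at 37 °C, read by HTRF against a cAMP standard curve, scaled from buffer only (0%) to maximal control ligand response (100%)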
hGIPR [3] = target: T2, hGIPR (Homo sapiens, UniProt P48546); assay: as above;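 further: intracellular cAMP rise after 30 min at 37 °C read by HTRF against a standard curve, scaled between buffer alone (0%) and top control ligand concentration (100%), four-parameter fit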
T2 sequence (P48546 22-466): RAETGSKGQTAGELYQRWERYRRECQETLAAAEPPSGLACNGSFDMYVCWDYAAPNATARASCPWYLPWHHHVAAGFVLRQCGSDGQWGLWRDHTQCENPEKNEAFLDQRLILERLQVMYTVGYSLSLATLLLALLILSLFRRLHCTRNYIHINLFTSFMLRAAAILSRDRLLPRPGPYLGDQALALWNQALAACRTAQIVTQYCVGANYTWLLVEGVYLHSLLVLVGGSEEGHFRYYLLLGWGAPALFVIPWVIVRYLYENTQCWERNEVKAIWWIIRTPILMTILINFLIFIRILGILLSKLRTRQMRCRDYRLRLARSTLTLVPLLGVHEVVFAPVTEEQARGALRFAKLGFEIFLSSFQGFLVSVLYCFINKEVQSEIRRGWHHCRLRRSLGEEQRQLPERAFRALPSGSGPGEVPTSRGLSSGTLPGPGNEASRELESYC

human GcgR = human GcgR (Homo sapiens, UniProt P47871); assay: Functional cAMP activity in the presence of 1% HSA
hGIPR [4] = target: T2, hGIPR; assay: Functional cAMP activity in the presence of 1% HSA
[5] = read-out: Relative cAMP EC50, hGLP-1R
[6] = read-out: cAMP Rel EC50, hGLP-1R
[7] = read-out: Relative cAMP EC50, hGcgR
[8] = read-out: Relative cAMP EC50, hGIPR
[9] = in the presence of 0.1% casein (no HSA), geometric mean, read-out: Relative cAMP EC50, hGLP-1R
[10] = in the presence of 0.1% casein (no HSA), geometric mean, read-out: Relative cAMP EC50, hGcgR
[11] = in the presence of 0.1% casein (no HSA), geometric mean, read-out: Relative cAMP EC50, hGIPR

human GcgR, sequence (P47871 26-477): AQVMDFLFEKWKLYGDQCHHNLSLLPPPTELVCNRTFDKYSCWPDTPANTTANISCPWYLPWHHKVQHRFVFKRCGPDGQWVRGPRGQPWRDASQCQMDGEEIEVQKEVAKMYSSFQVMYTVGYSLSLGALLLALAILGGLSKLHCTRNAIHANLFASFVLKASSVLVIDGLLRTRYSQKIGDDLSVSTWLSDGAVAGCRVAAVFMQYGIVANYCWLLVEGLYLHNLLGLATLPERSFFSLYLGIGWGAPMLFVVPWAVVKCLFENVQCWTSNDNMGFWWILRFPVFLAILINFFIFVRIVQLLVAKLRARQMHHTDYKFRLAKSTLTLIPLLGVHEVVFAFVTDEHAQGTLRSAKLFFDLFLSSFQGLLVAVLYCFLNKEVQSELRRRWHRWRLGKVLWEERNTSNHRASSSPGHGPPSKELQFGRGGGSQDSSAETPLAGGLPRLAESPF
hGcgR, sequence (P47871 26-477): as above
T1 sequence (P43220 24-463): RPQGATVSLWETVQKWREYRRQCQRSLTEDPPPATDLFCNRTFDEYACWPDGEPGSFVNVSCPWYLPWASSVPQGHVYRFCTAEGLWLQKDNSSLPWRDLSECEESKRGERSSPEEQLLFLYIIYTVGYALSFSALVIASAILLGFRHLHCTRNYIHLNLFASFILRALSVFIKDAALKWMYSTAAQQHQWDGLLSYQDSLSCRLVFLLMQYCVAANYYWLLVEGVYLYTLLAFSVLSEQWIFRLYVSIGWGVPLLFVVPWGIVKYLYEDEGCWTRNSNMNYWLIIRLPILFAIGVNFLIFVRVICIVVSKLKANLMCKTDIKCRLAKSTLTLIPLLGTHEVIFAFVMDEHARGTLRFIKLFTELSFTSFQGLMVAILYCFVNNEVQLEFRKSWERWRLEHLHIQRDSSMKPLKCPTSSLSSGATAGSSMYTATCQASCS

| Compound | EC50 (hGLP-1R [1]; [5]) | EC50 (hGLP-1R [2]; [6]) | EC50 (hGcgR; [7]) | EC50 (hGIPR [3]; [8]) | EC50 (human GcgR; read-out: cAMP Rel EC50, hGcgR) | EC50 (hGIPR [4]; read-out: cAMP Rel EC50, hGIPR) | EC50 (hGLP-1R [1]; [9]) | EC50 (hGcgR; [10]) | EC50 (hGIPR [3]; [11]) | further results |
| --- | --- | --- | --- | --- | --- | --- | --- | --- | --- | --- |
| CC[C@H](C)[C@H](NC(=O)[C@H](Cc1ccccc1)NC(=O)[C@H](C)NC(=O)C(C)(C)NC(=O)[C@H](CCC(N)=O)NC(=O)[C@H](C)NC(=O)[C@H](CCCCNC(=O)CC[C@H](NC(=O)CC[C@H](NC(=O)CCCCCCCCCCCCCCCCC(=O)O)C(=O)O)C(=O)O)NC(=O)[C@H](CCCCN)NC(=O)[C@H](CC(=O)O)NC(=O)[C@H](CC(C)C)NC(=O)[C@H](CC(C)C)NC(=O)[C@@H](NC(=O)[C@H](CO)NC(=O)[C@H](Cc1ccc(O)cc1)NC(=O)[C@H](CC(=O)O)NC(=O)[C@H](CO)NC(=O)[C@@H](NC(=O)[C@](C)(Cc1ccccc1F)NC(=O)[C@@H](NC(=O)CNC(=O)[C@H](CCC(N)=O)NC(=O)C(C)(C)NC(=O)[C@@H](N)Cc1ccc(O)cc1)[C@@H](C)O)[C@@H](C)O)[C@@H](C)CC)C(=O)N[C@@H](CCC(=O)O)C(=O)N[C@@H](Cc1ccc(O)cc1)C(=O)N[C@@H](CC(C)C)C(=O)N[C@@H](CCC(=O)O)C(=O)N[C@@H](CCC(=O)O)C(=O)NCC(=O)NCC(=O)N1CCC[C@H]1C(=O)N[C@@H](CO)C(=O)N[C@@H](CO)C(=O)NCC(=O)N[C@@H](C)C(=O)N1CCC[C@H]1C(=O)N1CCC[C@H]1C(=O)N1CCC[C@H]1C(=O)N[C@@H](CO)C(N)=O [Example 406] (H-Y[Aib]QGT[αMePhe(2-F)]TSDYSILLDKK([γGlu-γGlu-C18 diacid])AQ[Aib]AFIEYLEEGGPSSGAPPPS-NH2) | 0.208 nM | 27.8 nM | 1.23 nM | 0.0233 nM | 254 nM | 10.5 nM | – | – | – | – |
| H-Y[Aib]QGTFTSDFS[Orn][αMeL]LDKK([AEEA-γGlu-C18 diacid])AQ[Aib]AFIEYLLEGGPSSGAPPPEGT-NH2 [Example 160] | – | 482 nM | – | – | 479 nM | 44.4 nM | 5.39 nM | 4.32 nM | 0.354 nM | – |
| H-Y[Aib]QGT[αMePhe(2-F)]TSDYSI[αMeL]LD[Orn]K([AEEA-γGlu-C18 diacid])AQ[Aib]AFI[dE]YLLEGGPSSGAPPPSEG-NH2 [Example 404] | 0.217 nM | 32.2 nM | 4.1 nM | 0.0102 nM | 735 nM | 2.03 nM | – | – | – | – |
| Y[Aib]QGTFTSD[4Pal]S[Orn][αMeL]LDKK([γGlu-γGlu-C18 diacid])AQ[Aib]AFIE[αMeY]LLEGGPSSGAPPPSGSEE-NH2 [Example 944] | – | 985 nM | – | – | 1840 nM | 37.2 nM | 4.86 nM | 6.16 nM | 0.216 nM | – |
| H-Y[Aib]QGT[αMePhe(2-F)]TSD[4Pal][αMeS]I[αMeL]LD[Orn]K([AEEA-γGlu-C18 diacid])AQ[Aib][Orn]FI[dE][αMeY]LIEGGPSSGEPPPEGE-NH2 [Example 698] | 0.252 nM | 20.6 nM | 1.53 nM | 0.0112 nM | 124 nM | 0.824 nM | – | – | – | – |
| H-Y[Aib]QGTFTSDFS[Orn][αMeL]LDKK([AEEA-γGlu-C18 diacid])AQ[Aib]AFIEYLLEGGPSSGAPPPGGQ-NH2 [Example 159] | – | 588 nM | – | – | 475 nM | 49.7 nM | 4.15 nM | 6.89 nM | 0.343 nM | – |
| H-Y[Aib]QGTFTSD[4Pal]S[Orn][αMeL]LD[Orn]K([γGlu-γGlu-C18 diacid])AQ[αMe4Pal]QFIE[αMeY]LLEGGPSSGAPPPSGSEE-NH2 [Example 975] | – | – | – | – | – | – | – | – | – | EC50 (hGLP-1R [1]): 10.2 nM; EC50 (hGLP-1R [2]): 1810 nM; EC50 (hGcgR): 2.61 nM; EC50 (hGIPR [3]): 0.344 nM; EC50 (human GcgR): 374 nM; EC50 (hGIPR [4]): 30.1 nM |
| H-Y[Aib]QGTFTSD[4Pal]SQ[αMeL]LD[Orn]K([AEEA-γGlu-C18 diacid])AQ[αMe4Pal]QFIE[αMeY]LIEGGPSSGAPPPSGSEE-NH2 [Example 1045] | – | 276 nM | – | – | 1540 nM | 107 nM | 1.51 nM | 7.35 nM | 0.781 nM | – |
| H-Y[Aib]QGT[αMePhe(2-F)]TSD[4Pal][αMeS]I[αMeL]LD[Orn]K([γGlu-γGlu-C18 diacid])AQ[αMe4Pal]EFI[dE][αMeY]LVEGGPSSGAPPPSGE-NH2 [Example 1160] | – | 31.2 nM | – | – | 183 nM | 0.598 nM | 0.365 nM | 2.41 nM | 0.00773 nM | – |
| H-Y[Aib]QGT[αMePhe(2-F)]TSD[4Pal][αMeS]I[αMeL]LD[Orn]K([γGlu-γGlu-C18 diacid])AQ[αMe4Pal]EFI[dE][αMeY]LVEGGPSSGEPPPSGE-NH2 [Example 1161] | – | 35.5 nM | – | – | 217 nM | 0.733 nM | 0.39 nM | 2.19 nM | 0.00973 nM | – |
| H-Y[Aib]QGTFTSD[4Pal]SQ[αMeL]LDKK([AEEA-γGlu-C18 diacid])AQ[αMe4Pal]AFIEYLIE[Aib]GPSSGAPPPSG[4Pal]-NH2 [Example 835] | – | 274 nM | – | – | 558 nM | 16.8 nM | 2.84 nM | 3.83 nM | 0.382 nM | – |
| Y[Aib]QGTFTSDFS[Orn][αMeL]LDKK([AEEA-γGlu-C18 diacid])AQ[Aib]AFIEWLLEGGHSSGEPPPSGE-NH2 [Example 124] | – | 801 nM | – | – | 567 nM | 54.7 nM | 6.14 nM | 2.92 nM | 0.344 nM | – |
| CC[C@H](C)[C@H](NC(=O)[C@H](Cc1ccccc1)NC(=O)[C@H](C)NC(=O)C(C)(C)NC(=O)[C@H](CCC(N)=O)NC(=O)[C@H](C)NC(=O)[C@H](CCCCNC(=O)COCCOCCNC(=O)CC[C@H](NC(=O)CCCCCCCCCCCCCCCCC(=O)O)C(=O)O)NC(=O)[C@H](CCCCN)NC(=O)[C@H](CC(=O)O)NC(=O)[C@H](CC(C)C)NC(=O)[C@](C)(CC(C)C)NC(=O)[C@@H](NC(=O)[C@H](CO)NC(=O)[C@H](Cc1ccncc1)NC(=O)[C@H](CC(=O)O)NC(=O)[C@H](CO)NC(=O)[C@@H](NC(=O)[C@](C)(Cc1ccccc1F)NC(=O)[C@@H](NC(=O)CNC(=O)[C@H](CCC(N)=O)NC(=O)C(C)(C)NC(=O)[C@@H](N)Cc1ccc(O)cc1)[C@@H](C)O)[C@@H](C)O)[C@@H](C)CC)C(=O)N[C@@H](CCC(=O)O)C(=O)N[C@@H](Cc1ccc(O)cc1)C(=O)N[C@@H](CC(C)C)C(=O)N[C@@H](CCC(=O)O)C(=O)N[C@@H](CCC(=O)O)C(=O)NCC(=O)NCC(=O)N1CCC[C@H]1C(=O)N[C@@H](CO)C(=O)N[C@@H](CO)C(=O)NCC(=O)N[C@@H](CCC(=O)O)C(=O)N1CCC[C@H]1C(=O)N1CCC[C@H]1C(=O)N1CCC[C@H]1C(=O)N[C@@H](CO)C(N)=O [Example 442] (H-Y[Aib]QGT[αMePhe(2-F)]TSD[4Pal]SI[αMeL]LDKK([AEEA-γGlu-C18 diacid])AQ[Aib]AFIEYLEEGGPSSGEPPPS-NH2; N-terminus assumed) | 0.267 nM | 23.9 nM | 5.66 nM | 0.0237 nM | 342 nM | 1.81 nM | – | – | – | – |
| H-Y[Aib]Q[dA]T[αMePhe(2-F)]TSD[4Pal][αMeS]I[αMeL]LD[Orn]K([AEEA-γGlu-C18 diacid])AQ[Aib]EFI[dE][αMeY]LIEGGPSSGAPPPSGSE-NH2 [Example 1222] | – | 44.8 nM | – | – | 470 nM | 12.4 nM | – | – | – | EC50 (hGLP-1R [1]; 0.1% casein, no HSA, geometric mean, read-out: Relative cAMP EC50, hGLP-1R): 0.346 nM; EC50 (hGcgR; 0.1% casein, no HSA, geometric mean, read-out: Relative cAMP EC50, hGcgR): 2.55 nM; EC50 (hGIPR [3]; 0.1% casein, no HSA, geometric mean, read-out: Relative cAMP EC50, hGIPR): 0.0858 nM |
| H-Y[Aib]QGT[αMePhe(2-F)]TSD[4Pal][αMeS]I[αMeL]LD[Orn]K([γGlu-Glu-C18 diacid])AQ[Aib][Orn]FI[dE][αMeY]LSEGGPSSGEPPPSGTEE-NH2 [Example 566] | 1.3 nM | 252 nM | 7.18 nM | 0.137 nM | 1780 nM | 30.1 nM | – | – | – | – |
